The values below come from patent US20230248814A1, “COMPOSITIONS AND METHODS FOR TREATING MERKEL CELL CARCINOMA (MCC) USING HLA CLASS I SPECIFIC EPITOPES” (The Broad Institute, Inc., priority 2020, published 2023).

Holding throughout (format): cell-based, human
In test [1] the test system is MKL-1 cells. The test is described as follows: Cell cycle analysis (EdU/DAPI flow cytometry) of MKL-1 control or p53 KO cells. The following applies: MKL-1 TP53-WT and TP53-KO; 100 nM; three days. The method, then: Cell cycle analysis. 1 million MKL-1 control or p53 KO cells were plated and treated with DMSO, XL177A (100 nM) or XL177B (100 nM) for three days. During the last hour of the three- day treatment, the cells were pulsed with 10 µM EdU nucleotide. The cells were collected by centrifugation, treated with Accutase™ (Stem Cell Technologies) to break apart clumps, washed with PBS and fixed using 4% Formaldehyde solution in PBS at Room temperature for 15 mins. Cells were washed with 1% BSA in PBS and resuspended in 70% ice cold ethanol and incubated at -20° C. overnight for additional fixing and permeabilization. The cells were stored in 70% ethanol at -20° C. until the day the data was acquired. On the day of data acquisition, the cells were collected by centrifugation and washed twice with PBS. The incorporated EdU in the cells were labeled with a CLICK reaction cocktail (1 mM CuSO4, 100 µM THPTA, 100 mM sodium ascorbate, and 2.2 µM Alexa 647 azide in PBS) at room temperature with rocking for 30 minutes. The samples were then washed with 1% BSA in PBS once followed by two washes with PBS and incubated with a 1 µg/ml DAPI, 100 ng/ml RNase A solution for one hour at Room temperature to stain the DNA. The samples were then passed through strainer tubes and analyzed using a BD Fortessa analyzer. The flow cytometry data was analyzed using the FlowJo Software. […]
A general note: In flow cytometry, cells or beads pass a laser one at a time.

Test [2] concerns MKL-1 cells. The test is described as follows: USP7 inhibitor flow cytometry for surface HLA-I in MKL-1 p53-WT control and p53-KO lines. As to conditions: MKL-1 TP53-KO and TP53-WT lines; 100 nM. The method, then: For MKL-1 USP7 inhibitor experiments, p53-WT control lines (WT, scrambled, AAVS1) and three p53-KO lines were treated with USP7 inhibitors and assessed by flow cytometry for surface HLA I as described above for MCC-301.

Test [3] concerns MCC lines (MCC-301, -277, -290, -320). The test is described as follows: USP7 inhibitor experiments: flow cytometry for surface HLA-I in MCC lines.
The next test relates to MCC-301 cells. The test is described as follows: HLA-I-bound peptidome (TMT LC-MS/MS) of USP7 inhibitor treated MCC-301 cells. The method, then: Immunopeptidomes of USP7 inhibitor treated cell lines were eluted as described above, followed by labeling with TMT6 reagent (Thermo Fisher; 126-USP7iA, 127-WT, 128 USP7iA, 129 WT, 130-USP7iB, 131 USP7iB) and then pooled for subsequent fractionation using basic reversed phase fractionation with increasing concentrations of acetonitrile (10%, 15% and 50%) in 5 mM ammonium formate (pH 10) and analysis on an Orbitrap Exploris 480 with FAIMSpro. Data acquisition parameters were as above with NCE set to 34 and 2 second dynamic exclusion.
Mass spectra were interpreted using Spectrum Mill software package v7.1 pre-Release (Broad Institute, Cambridge, MA). […] Merging of similar spectra with the same precursor m/z acquired in the same chromatographic peak was disabled. MS/MS spectra were searched against a protein sequence database that contained 90,904 entries, including all UCSC Genome Browser genes with hg19 annotation of the genome and its protein coding transcripts (52,788 entries), common human virus sequences (30,181 entries), recurrently mutated proteins observed in tumors from 26 tissues (4,595 entries), 264 common laboratory contaminants as well as protein sequences containing somatic mutations detected in MCC cell lines (3,076 entries). MS/MS search parameters included: no-enzyme specificity; ESI-QEXACTIVE-HCD-HLA-v3 instrument scoring; fixed modification: […]; variable modifications: oxidation of methionine, carbamidomethylation of cysteine and pyroglutamic acid at peptide N-terminal glutamine; precursor mass tolerance of ±10 ppm; product mass tolerance of ±10 ppm, and a minimum matched peak intensity of 30%. Peptide spectrum matches (PSMs) for individual spectra were automatically designated as confidently assigned using the Spectrum Mill auto-validation module to apply target-decoy based FDR estimation at the PSM level of <1% FDR. Peptide auto-validation was done separately for each sample with an auto thresholds strategy to optimize score and delta Rank1 - Rank2 score thresholds separately for each precursor charge state (1 through 4) across all LC-MS/MS runs per sample. […] Peptide and PSM exports were filtered for contaminants including potential carry over tryptic peptides and peptides identified in a blank bead sample. For TMT-labeled samples, peptides derived from keratin proteins were removed and TMT intensity values were normalized to the global median. P-values were calculated using in house software based on the limma package in R.

[4] abbreviates: 100 nM, 3 days, two MCPyV+ lines (MCC-301, -277).

Consider `CN1CCN(CCC(=O)Nc2ccc3c(=O)n(CC4(O)CCN(C(=O)[C@@H](CCCNC(=O)c5ccc6c(Cl)c7c(nc6c5)CCCC7)Cc5ccccc5)CC4)cnc3c2)CC1` [XL177A], for which, in the test on MKL-1 cells [1], the “cell cycle phase distribution” value was “slight cell cycle shifts from S to G1 phase”. Besides, the “surface HLA-I relative to XL177B and DMSO” value with MKL-1 cells [2] was “increased surface HLA-I”. Moreover, in test [3] (setting [4]), the “increase in expression of surface HLA-I relative to DMSO (mean)” value is recorded as 2.0 fold and the “increase in expression of surface HLA-I relative to DMSO (range)” value is 1.78 - 2.27 fold. Further, in test [3] (MCC-301, 100 nM, 4 days), the “increase in MFI (HLA-ABC) by flow cytometry” value is listed as “greater than twofold increase”. Further, the HLA-I levels result in test [3] (MCPyV- line MCC-290, 3 days) was “more modest increase in HLA-I levels”. For the same compound, the HLA-I levels entry in test [3] (MCPyV- line MCC-320, 3 days) is on record as “but not MCC-320”. Besides, in the test with MCC-301 cells, the “abundances of HLA-I displayed peptides compared to XL177B and untreated cells” value is on record as “higher abundances of displayed peptides”; the “frequency of peptides displayed on each HLA-I gene (HLA-A, -B, -C)” value is “did not affect”; the “peptides more abundant than in untreated cells, out of 282 significantly differing (P < 0.05)” value was 270 peptides; the “share of the 282 significantly differing peptides more abundant than in untreated cells” value is on record as 95.7%.
